# Test results reported in patent EP4772500A1, “NOVEL ISOXAZOLE COMPOUND AS TM4SF5-SPECIFIC INHIBITOR AND USE THEREOF” (Seoul National University R&DB Foundation, priority 2023, dated 2025).
# Test system: SNU761-EV cells
# Assay: Western blotting of SLAMF7 expression, control SNU761 cells
# Type: cell-based, human
# Conditions: SNU761-EV (FIG. 13d)
# Description: Cell extracts were obtained from cells grown to a density of 70-80% without any treatment, or from cells treated with vehicle DMSO or drugs at the given concentrations for 24 hours. For the extract of hepatocytes or liver cancer cells, a lysis buffer (150 mM NaCl, 1% NP-40, 50 mM Tris-HCl, 0.25% sodium deoxycholate, pH 7.4) including a protease inhibitor cocktail (GenDEPOT) was used. In addition, after washing animal liver tissue twice with PBS, SDS, Na3VO4, and protease inhibitor cocktails (GenDEPOT) were added to a lysis buffer [50 mM Tris-HCl, pH 7.4, 1% NP40, 0.25% sodium deoxycholate, 150 mM NaCl, 1 mM EDTA (based on 500 ml)], followed by treatment at 4°C for 15 minutes. […] After quantification using BCA reagent (Thermo Scientific), a 4 × sample buffer [100% glycerol 4 ml, Tris-HCl, pH 6.8, 2.4 ml, SDS 0.8 g, Bromophenol blue 4 mg, betamercaptoethanol 0.4 ml, H2O 3.1 ml (based on 10 ml)] was added, followed by boiling at 100°C for 5 minutes. […]
# After 24 hours, vehicle DMSO, drug ST-1-025, or ST-5-002 was treated at the given concentrations. […] (f) After treating NK92-EV or NK92-TM4SF5 cells with DMSO or drugs ST-2-001 (1 nM), ST-3-005 (10 nM or 1 µM), ST-5-001, or ST-5-002 (100 nM or 1 µM) for 24 hours, the expression of SLAMF7 expressed on the cell surface was analyzed through immunostaining using flow cytometry. […]
smiles,measurement,value
"Cc1ccc(C(=O)Nc2ccc(-c3cc(-c4ccc(O)cc4)no3)cc2)cc1 [ST-5-002, N-(4-(3-(4-hydroxyphenyl)isoxazole-5-yl)phenyl)-4-methylbenzamide]",expression of SLAMF7,lowered
